Measurements taken from PubChem BioAssay AID652194 (Johns Hopkins Ion Channel Center, 2013).
Calls of active or inactive are those of the source.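 Rule for the calls: active = hERG flux cut by over 30% at some tested dose, with a fitted dose response curve; inactive = no hERG inhibition at any dose or no curve.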

molecular target: Voltage-gated inwardly rectifying potassium channel KCNH2 (Homo sapiens) (UniProt Q12809); assay: off-target hERG block by TASK1 inhibitor candidates – FluxOR thallium flux, concentration-response, CHO cells, selectivity assay for TASK1 inhibitor project, SAR follow-up (AID 652194); conditions: hERG-expressing cells, FluxOR thallium flux fluorescence
Sequence (Q12809 whole entry, looked up): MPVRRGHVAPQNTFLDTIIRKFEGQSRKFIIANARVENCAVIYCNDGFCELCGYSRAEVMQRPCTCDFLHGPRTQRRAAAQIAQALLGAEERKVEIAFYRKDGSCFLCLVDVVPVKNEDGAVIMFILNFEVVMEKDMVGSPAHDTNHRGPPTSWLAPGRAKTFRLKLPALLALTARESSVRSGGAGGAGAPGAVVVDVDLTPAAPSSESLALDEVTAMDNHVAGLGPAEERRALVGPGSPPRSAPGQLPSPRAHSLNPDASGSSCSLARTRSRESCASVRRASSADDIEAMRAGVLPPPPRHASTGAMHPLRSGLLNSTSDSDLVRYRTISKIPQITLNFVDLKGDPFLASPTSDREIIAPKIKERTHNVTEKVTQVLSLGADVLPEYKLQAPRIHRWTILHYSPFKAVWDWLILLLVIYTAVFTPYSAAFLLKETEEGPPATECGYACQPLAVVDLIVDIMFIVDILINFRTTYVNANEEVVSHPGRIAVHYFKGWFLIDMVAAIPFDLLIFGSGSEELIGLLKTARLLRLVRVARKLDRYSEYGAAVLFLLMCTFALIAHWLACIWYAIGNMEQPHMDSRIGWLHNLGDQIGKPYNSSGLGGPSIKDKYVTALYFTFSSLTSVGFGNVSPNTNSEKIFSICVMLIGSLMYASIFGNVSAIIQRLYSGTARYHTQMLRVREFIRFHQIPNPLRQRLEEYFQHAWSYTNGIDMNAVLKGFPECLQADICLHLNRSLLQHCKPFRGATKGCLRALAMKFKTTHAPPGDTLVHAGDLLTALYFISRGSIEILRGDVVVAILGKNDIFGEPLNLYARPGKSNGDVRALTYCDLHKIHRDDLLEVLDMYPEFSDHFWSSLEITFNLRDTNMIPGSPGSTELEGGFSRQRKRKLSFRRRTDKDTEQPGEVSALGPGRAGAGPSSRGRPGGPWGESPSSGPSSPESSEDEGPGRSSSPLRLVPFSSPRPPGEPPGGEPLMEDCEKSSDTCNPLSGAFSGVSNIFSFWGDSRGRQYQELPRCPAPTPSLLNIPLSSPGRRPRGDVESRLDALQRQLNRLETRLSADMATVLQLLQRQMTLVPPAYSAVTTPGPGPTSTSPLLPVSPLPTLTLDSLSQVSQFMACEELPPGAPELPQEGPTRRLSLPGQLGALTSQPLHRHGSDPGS

Row | SMILES | IC50
1 | Cc1cccc(C(=O)Nc2cccc(NC(=O)c3cccc(C)c3)c2)c1 | 12.4 µM

same assay, conditions: hERG-expressing cells, FluxOR thallium flux fluorescence; at 30 µM (top of the series)

Row | SMILES | flux ratio, lower = inhibition
2 | Cc1ccccc1C(=O)Nc1cccc(NC(=O)c2ccccc2)c1 | inactive
3 | Cc1cccc(C(=O)Nc2cccc(NC(=O)c3ccccc3C)c2)c1 | inactive
4 | CCOc1ccccc1NC(=O)c1cccc(NC(=O)c2cccc(C(F)(F)F)c2)c1 | inactive
5 | O=C(Nc1cccc(NC(=O)C2CCCCC2)c1)c1ccccc1 | inactive
6 | CCOc1ccccc1NC(=O)c1cccc(NC(=O)CC2CCCCC2)c1 | inactive
7 | CCOc1ccccc1NC(=O)c1cccc(NC(=O)c2ccccc2OC)c1 | inactive
8 | CCOc1ccc(NC(=O)c2cccc(NC(=O)C3CCCC3)c2)cc1 | inactive
9 | CCOc1ccccc1NC(=O)c1cccc(C(=O)NC2CCCC2)c1 | inactive
10 | Cc1cccc(C(=O)Nc2cccc(NC(=O)c3ccc(N(C)C)cc3)c2)c1 | inactive
11 | O=C(Nc1cccc(NC(=O)c2cccs2)c1)c1ccccc1 | inactive
12 | O=C(Nc1cccc(NC(=O)c2cccc(C(F)(F)F)c2)c1)c1ccccc1 | inactive
13 | Cc1cccc(S(=O)(=O)Nc2cccc(NC(=O)c3ccccc3)c2)c1 | inactive
14 | CN(C)c1ccc(C(=O)Nc2cccc(NC(=O)c3ccccc3)c2)cc1 | inactive
15 | CC(C)c1ccccc1C(=O)Nc1cccc(NC(=O)c2ccccc2OC(F)(F)F)c1 | inactive
16 | O=C(Nc1cccc(NC(=O)c2ccoc2)c1)c1ccccc1 | inactive
17 | CCOc1ccccc1NC(=O)c1cccc(NC(=O)C2CCOC2)c1 (stereo not given) | inactive
18 | Cc1cccc(C(=O)Nc2cccc(C(=O)Nc3ccccc3)c2)c1 | inactive
19 | Cc1cccc(C(=O)Nc2cccc(NC(=O)c3ccccc3OCC(C)C)c2)c1 | inactive
20 | O=C(Nc1cccc(NC(=O)c2ccc(F)cc2)c1)c1ccccc1 | inactive
21 | CC(C)Oc1ccccc1C(=O)Nc1cccc(NC(=O)c2ccccc2OC(F)(F)F)c1 | inactive
22 | Cc1cccc(C(=O)Nc2cccc(NC(=O)C3CCCCC3)c2)c1 | inactive
23 | COc1ccc(F)cc1C(=O)Nc1cccc(NC(=O)c2cccc(C)c2)c1 | inactive
24 | COc1ccccc1C(=O)Nc1cccc(NC(=O)c2cccc(C)c2)c1 | inactive
25 | O=C(Nc1cccc(NC(=O)c2ccncc2)c1)c1ccccc1 | inactive

Row | SMILES | flux ratio, lower = inhibition
26 | COc1cccc(C(=O)Nc2cccc(NC(=O)c3ccccc3)c2)c1 | inactive
27 | O=C(Nc1cccc(NC(=O)c2ccccc2)c1)c1ccccc1 | inactive
28 | CCOc1ccccc1NC(=O)c1cccc(NC(=O)c2ccccc2)c1 | inactive
29 | COc1cccc(C(=O)Nc2cccc(NC(=O)c3cccc(C)c3)c2)c1 | inactive
30 | Cc1cccc(C(=O)Nc2cccc(NC(=O)c3ccncc3)c2)c1 | inactive
31 | CCOc1ccccc1NC(=O)c1cccc(NC(=O)c2ccc(OC)cc2)c1 | inactive
32 | COc1c(F)cccc1C(=O)Nc1cccc(NC(=O)c2cccc(C)c2)c1 | inactive
33 | Cc1cccc(C(=O)Nc2cccc(NC(=O)c3ccccc3C(F)(F)F)c2)c1 | inactive
34 | COc1ccccc1NC(=O)c1cccc(NC(=O)C2CCCCC2)c1 | inactive
35 | CCOc1ccccc1NC(=O)c1cccc(NC(=O)c2cccc(Cl)c2)c1 | inactive
36 | COc1cccc(OC)c1C(=O)Nc1cccc(NC(=O)c2cccc(C)c2)c1 | inactive
37 | CCOc1ccccc1NC(=O)c1cccc(NC(=O)c2cccc(C)c2)c1 | inactive
38 | Cc1cccc(C(=O)Nc2cccc(NC(=O)c3cccc(F)c3)c2)c1 | inactive
39 | Cc1cccc(C(=O)Nc2cccc(NC(=O)c3ccccc3OC(F)(F)F)c2)c1 | inactive
40 | Cc1cccc(C(=O)Nc2ccccc2NC(=O)c2ccccc2)c1 | inactive
41 | COc1ccccc1C(=O)Nc1cccc(NC(=O)c2ccccc2OC)c1 | inactive
42 | CCOc1ccccc1NC(=O)c1cccc(NC(=O)CC2CCCC2)c1 | inactive
43 | Cc1cccc(C(=O)Nc2ccccc2C(=O)Nc2ccccc2)c1 | inactive
44 | Cc1cccc(NC(=O)c2ccccc2NC(=O)c2ccccc2)c1 | inactive
45 | CCOc1ccccc1C(=O)Nc1cccc(NC(=O)C2CCCC2)c1 | inactive
46 | CCOc1ccccc1NC(=O)c1cccc(NC(=O)c2ccccc2C)c1 | inactive
47 | COc1ccccc1C(=O)Nc1cc(NC(=O)c2ccccc2C(C)C)ccc1F | inactive
48 | Cc1cccc(C(=O)Nc2cccc(NC(=O)c3cccc(C(F)(F)F)c3)c2)c1 | inactive
49 | O=C(Nc1ccccc1Cl)c1cccc(NC(=O)C2CCCC2)c1 | inactive

Row | SMILES | flux ratio, lower = inhibition
50 | O=C(Nc1cccc(NC(=O)c2cccnc2)c1)c1ccccc1 | inactive
51 | O=C(Nc1cccc(NC(=O)c2cccc(Cl)c2)c1)c1ccccc1 | inactive
52 | Cc1cccc(C(=O)Nc2cccc(NC(=O)c3ccco3)c2)c1 | inactive
53 | Cc1cccc(C(=O)Nc2cccc(NC(=O)c3ccc(C(F)(F)F)cc3)c2)c1 | inactive
54 | CCOc1ccccc1NC(=O)c1cccc(NC(=O)C2CCCC2)c1 | inactive
55 | CCOc1ccccc1NC(=O)c1cccc(NC(=O)c2ccc(C)cc2)c1 | inactive
56 | COc1ccc(C(=O)Nc2cccc(NC(=O)c3ccccc3)c2)cc1 | inactive
57 | COc1cnccc1C(=O)Nc1cccc(NC(=O)c2cccc(C)c2)c1 | inactive
58 | CCOc1ccccc1NC(=O)c1cccc(NC(=O)c2ccccc2Cl)c1 | inactive
59 | O=C(Nc1cccc(NC(=O)c2ccc(C(F)(F)F)cc2)c1)c1ccccc1 | inactive
60 | CCOc1ccccc1NC(=O)c1cccc(NC(=O)c2ccc(Cl)cc2)c1 | inactive
61 | Cc1cccc(C(=O)Nc2cccc(NC(=O)c3cccs3)c2)c1 | inactive
62 | COc1ccccc1NC(=O)c1cccc(NC(=O)c2ccccc2)c1 | inactive
63 | CCOc1ccccc1NC(=O)c1cccc(NC(=O)c2ccccc2C(F)(F)F)c1 | inactive
64 | CCOc1ccccc1NC(=O)c1cccc(NC(=O)c2ccc(C(F)(F)F)cc2)c1 | inactive
65 | COc1ccccc1C(=O)Nc1cccc(NC(=O)c2ccccc2C)c1 | inactive
66 | COc1ccccc1NC(=O)c1cccc(NC(=O)CC2CCCC2)c1 | inactive
67 | O=C(Nc1cccc(NC(=O)c2ccccc2C(F)(F)F)c1)c1ccccc1 | inactive
68 | Cc1cccc(C(=O)Nc2cccc(NC(=O)c3ccccc3C(C)C)c2)c1 | inactive
69 | COc1ccc(C(=O)Nc2cccc(NC(=O)c3cccc(C)c3)c2)cc1 | inactive
70 | COc1ccccc1NC(=O)c1cccc(NC(=O)c2ccccc2C(F)(F)F)c1 | inactive
71 | O=C(Nc1cccc(NC(=O)c2ccc(Cl)cc2)c1)c1ccccc1 | inactive
72 | CCOc1ccccc1NC(=O)c1cccc(NC(=O)C2CCCO2)c1 (stereo not given) | inactive
73 | CC(C)(C)c1ccc(C(=O)Nc2cccc(NC(=O)c3ccccc3)c2)cc1 | inactive

Row | SMILES | flux ratio, lower = inhibition
74 | Cc1cccc(C(=O)Nc2cccc(NC(=O)c3ccccc3Cl)c2)c1 | inactive
75 | COc1ccccc1C(=O)Nc1cccc(NC(=O)c2ccccc2OC(F)(F)F)c1 | inactive
76 | O=C(Nc1cccc(NC(=O)c2ccsc2)c1)c1ccccc1 | inactive
77 | COc1ccccc1C(=O)Nc1cccc(NC(=O)c2cccc3ccccc23)c1 | inactive
78 | CCOc1ccccc1NC(=O)c1cccc(NC(=O)C2CCCCC2)c1 | inactive
79 | Cc1cccc(NC(=O)c2cccc(NC(=O)c3ccccc3)c2)c1 | inactive
80 | COc1ccccc1C(=O)Nc1cccc(NC(=O)c2ccccc2C(C)C)c1 | inactive
81 | CCOc1ccccc1C(=O)Nc1cccc(NC(=O)c2ccccc2OC)c1 | inactive
82 | COc1ccccc1NC(=O)c1cccc(NC(=O)c2ccccc2OC)c1 | inactive
83 | CCOc1ccccc1C(=O)Nc1cccc(NC(=O)c2ccccc2C(F)(F)F)c1 | inactive
84 | O=C(Nc1cccc(NC(=O)c2ccccn2)c1)c1ccccc1 | inactive
85 | Cc1ccc(C(=O)Nc2cccc(NC(=O)c3ccccc3)c2)cc1 | inactive
86 | CCOc1ccccc1NC(=O)c1cccc(NC(=O)C2CC2)c1 | inactive
87 | O=C(Nc1cccc(NC(=O)c2ccco2)c1)c1ccccc1 | inactive
88 | CCOc1ccccc1NC(=O)c1cccc(NC(=O)c2cccc(OC)c2)c1 | inactive
89 | O=C(Nc1cccc(NC(=O)c2cccc(F)c2)c1)c1ccccc1 | inactive
90 | CCOc1ccccc1NC(=O)c1cccc(NC(=O)C(C)(C)C)c1 | inactive
91 | COc1ccccc1C(=O)Nc1cc(NC(=O)c2cccc(C)c2)ccc1F | inactive
92 | CCOc1ccccc1C(=O)Nc1cccc(NC(=O)c2cccc(C)c2)c1 | inactive
93 | O=C(Nc1cccc(NC(=O)c2ccccc2Cl)c1)c1ccccc1 | inactive
94 | Cc1cccc(C(=O)Nc2cccc(NC(=O)c3ccc(Cl)cc3)c2)c1 | inactive
95 | CCOc1ccccc1NC(=O)c1cccc(NC(=O)c2ccccc2OC(F)(F)F)c1 | inactive
